This passage reports IC50 results from patent publication US10654831B2, “Antiproliferative pyrimidine-based compounds” (G1 Therapeutics, Inc., priority 2016, dated 2020).

Holding throughout (type): biochemical
One assay has as its target CDK4/CycD (Homo sapiens (Human), UniProt P11802). The assay can be described thus: CDK4/CycD kinase assay (Caliper microfluidic). To be noted: at Km for ATP. As for the experimental part: (§1) Selected compounds disclosed herein were tested in CDK4/cyclinD1, CDK2/CycA and CDK2/cyclinE kinase assays by Nanosyn (Santa Clara, Calif.) to determine their inhibitory effect on these CDKs. The assays were performed using microfluidic kinase detection technology (Caliper Assay Platform). The compounds were tested in 12-point dose-response format in singlicate at Km for ATP. Phosphoacceptor substrate peptide concentration used was 1 μM for all assays and Staurosporine was used as the reference compound for all assays. Specifics of each assay are as described below:
CDK4/CyclinD1: Enzyme concentration: 1 nM; ATP concentration: 200 μM; Incubation time: 10 hr.

The target in a further assay is CDK6/CycD3 (Homo sapiens (Human), UniProt Q00534). The assay can be described thus: CDK6/CycD3 kinase assay. As to the method: [The procedure below names another target; the source lists this target under the same test.] Selected compounds disclosed herein were tested in CDK4/cyclinD1, CDK2/CycA and CDK2/cyclinE kinase assays by Nanosyn (Santa Clara, Calif.) to determine their inhibitory effect on these CDKs. The assays were performed using microfluidic kinase detection technology (Caliper Assay Platform). The compounds were tested in 12-point dose-response format in singlicate at Km for ATP. Phosphoacceptor substrate peptide concentration used was 1 μM for all assays and Staurosporine was used as the reference compound for all assays.
Sequence of CDK6/CycD3 (Q00534 whole entry): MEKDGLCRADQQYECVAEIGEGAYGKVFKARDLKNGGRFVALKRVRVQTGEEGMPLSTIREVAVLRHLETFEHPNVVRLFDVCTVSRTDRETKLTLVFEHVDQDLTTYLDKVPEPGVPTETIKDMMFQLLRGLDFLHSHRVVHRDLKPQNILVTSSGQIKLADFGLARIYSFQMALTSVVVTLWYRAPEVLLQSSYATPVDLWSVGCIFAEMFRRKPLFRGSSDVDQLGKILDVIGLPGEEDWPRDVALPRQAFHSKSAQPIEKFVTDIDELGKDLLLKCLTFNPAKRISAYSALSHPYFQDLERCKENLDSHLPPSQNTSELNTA
Sequence of CDK6/CycD3 (P30281 whole entry partner): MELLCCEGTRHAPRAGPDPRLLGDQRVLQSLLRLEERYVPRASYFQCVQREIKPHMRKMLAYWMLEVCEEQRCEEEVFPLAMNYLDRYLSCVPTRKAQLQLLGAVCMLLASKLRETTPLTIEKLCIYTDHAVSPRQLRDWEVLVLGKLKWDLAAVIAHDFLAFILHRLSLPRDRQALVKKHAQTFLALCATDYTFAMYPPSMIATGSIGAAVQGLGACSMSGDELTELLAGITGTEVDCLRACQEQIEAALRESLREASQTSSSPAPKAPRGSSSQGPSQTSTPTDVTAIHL

A further assay deals with CDK2/CycE (Homo sapiens (Human), UniProt P24941). In words: CDK2/CycE kinase assay (Caliper microfluidic). To be noted: at Km for ATP. As to the method: as §1
CDK2/CyclinE: Enzyme concentration: 0.28 nM; ATP concentration: 100 μM; Incubation time: 1 hr.

In the next assay the target is CDK2/CycA (Homo sapiens (Human), UniProt P24941). The assay can be described thus: CDK2/CycA kinase assay (Caliper microfluidic). To be noted: at Km for ATP. As for the experimental part:
as §1
CDK2/CyclinA: Enzyme concentration: 0.2 nM; ATP concentration: 50 μM; Incubation time: 3 hr.

Another assay has as its target CDK5/p35 (Homo sapiens (Human), UniProt Q00535). In words: CDK5/p35 kinase assay.
The target in another assay is CDK5/p25 (Homo sapiens (Human), UniProt Q00535). In words: CDK5/p25 kinase assay.
Sequence of CDK5/p25 (Q00535 whole entry): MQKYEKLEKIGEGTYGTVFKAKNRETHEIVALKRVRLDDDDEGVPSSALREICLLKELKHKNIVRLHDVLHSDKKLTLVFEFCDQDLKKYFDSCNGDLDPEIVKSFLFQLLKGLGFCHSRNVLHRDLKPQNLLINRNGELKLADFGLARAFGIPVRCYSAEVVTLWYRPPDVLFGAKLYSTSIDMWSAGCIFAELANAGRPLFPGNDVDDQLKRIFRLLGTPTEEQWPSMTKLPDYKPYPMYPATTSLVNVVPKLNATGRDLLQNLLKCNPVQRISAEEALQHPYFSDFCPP
The next assay addresses CDK7/CycH/MAT1 (Homo sapiens (Human), UniProt P50613). The assay can be described thus: CDK7/CycH/MAT1 kinase assay.
In a further assay the target is CDK9/CycT (Homo sapiens (Human), UniProt P50750). In words: CDK9/CycT kinase assay.
Sequence of CDK9/CycT (P50750 whole entry): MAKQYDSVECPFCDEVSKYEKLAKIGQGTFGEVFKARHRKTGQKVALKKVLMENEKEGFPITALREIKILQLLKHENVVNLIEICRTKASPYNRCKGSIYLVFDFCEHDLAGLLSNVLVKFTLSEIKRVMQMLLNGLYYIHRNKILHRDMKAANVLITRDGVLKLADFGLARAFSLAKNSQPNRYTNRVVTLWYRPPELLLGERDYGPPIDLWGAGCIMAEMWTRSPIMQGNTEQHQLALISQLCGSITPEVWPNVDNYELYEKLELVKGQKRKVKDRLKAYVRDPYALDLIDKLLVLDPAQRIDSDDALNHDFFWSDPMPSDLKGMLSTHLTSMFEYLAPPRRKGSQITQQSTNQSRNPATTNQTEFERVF
Sequence of CDK9/CycT (O60563 whole entry partner): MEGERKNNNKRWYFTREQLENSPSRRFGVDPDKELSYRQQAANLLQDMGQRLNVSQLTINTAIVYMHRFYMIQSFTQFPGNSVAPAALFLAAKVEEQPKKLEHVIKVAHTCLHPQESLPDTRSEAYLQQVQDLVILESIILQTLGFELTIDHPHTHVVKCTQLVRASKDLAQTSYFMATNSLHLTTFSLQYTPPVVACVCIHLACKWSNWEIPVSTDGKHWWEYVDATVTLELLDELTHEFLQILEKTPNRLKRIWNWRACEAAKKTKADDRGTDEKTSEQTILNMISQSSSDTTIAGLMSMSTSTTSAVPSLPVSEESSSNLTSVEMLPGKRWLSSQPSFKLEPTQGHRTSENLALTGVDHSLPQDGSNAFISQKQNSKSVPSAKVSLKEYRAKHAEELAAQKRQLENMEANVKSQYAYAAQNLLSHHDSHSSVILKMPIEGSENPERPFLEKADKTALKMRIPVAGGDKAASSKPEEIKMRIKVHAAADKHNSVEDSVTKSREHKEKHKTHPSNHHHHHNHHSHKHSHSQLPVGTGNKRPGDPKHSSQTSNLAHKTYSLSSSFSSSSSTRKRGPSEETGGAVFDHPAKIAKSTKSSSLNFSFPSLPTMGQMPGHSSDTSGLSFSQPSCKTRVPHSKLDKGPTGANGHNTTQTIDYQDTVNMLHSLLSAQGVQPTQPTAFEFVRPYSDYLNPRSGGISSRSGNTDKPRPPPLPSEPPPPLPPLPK

pIC50: −log10 of the molar value.

Sequence of CDK5/p35 (Q00535 whole entry): as the sequence (Q00535 whole entry) above
Sequence of CDK5/p35 (Q15078 whole entry partner): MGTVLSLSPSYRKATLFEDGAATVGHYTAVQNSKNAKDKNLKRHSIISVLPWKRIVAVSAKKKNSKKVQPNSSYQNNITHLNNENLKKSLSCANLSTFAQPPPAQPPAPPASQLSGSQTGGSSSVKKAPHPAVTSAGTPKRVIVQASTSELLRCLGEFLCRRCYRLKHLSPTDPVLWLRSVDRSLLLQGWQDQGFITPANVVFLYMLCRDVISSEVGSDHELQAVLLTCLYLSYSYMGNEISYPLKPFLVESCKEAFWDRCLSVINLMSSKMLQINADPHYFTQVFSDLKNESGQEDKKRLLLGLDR
Sequence of CDK7/CycH/MAT1 (P50613 whole entry): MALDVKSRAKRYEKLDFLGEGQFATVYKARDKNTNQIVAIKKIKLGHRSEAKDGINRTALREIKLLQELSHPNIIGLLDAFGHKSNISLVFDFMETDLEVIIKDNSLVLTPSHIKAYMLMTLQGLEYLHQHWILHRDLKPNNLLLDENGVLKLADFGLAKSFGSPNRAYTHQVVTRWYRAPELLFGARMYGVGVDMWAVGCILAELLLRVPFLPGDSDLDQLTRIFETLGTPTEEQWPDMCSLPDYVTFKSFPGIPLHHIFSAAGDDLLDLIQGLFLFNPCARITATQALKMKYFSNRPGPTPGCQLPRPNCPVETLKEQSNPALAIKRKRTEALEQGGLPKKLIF
Sequence of CDK7/CycH/MAT1 (P51946 whole entry partner): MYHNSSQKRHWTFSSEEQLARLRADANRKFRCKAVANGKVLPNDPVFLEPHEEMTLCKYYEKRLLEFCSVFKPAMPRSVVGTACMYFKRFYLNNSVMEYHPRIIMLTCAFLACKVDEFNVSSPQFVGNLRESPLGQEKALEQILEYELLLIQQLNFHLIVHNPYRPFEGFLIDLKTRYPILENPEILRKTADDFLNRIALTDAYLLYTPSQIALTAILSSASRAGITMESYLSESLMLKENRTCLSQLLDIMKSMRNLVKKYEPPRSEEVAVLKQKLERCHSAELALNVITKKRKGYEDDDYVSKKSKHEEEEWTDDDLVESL
Sequence of CDK7/CycH/MAT1 (P51948 whole entry partner): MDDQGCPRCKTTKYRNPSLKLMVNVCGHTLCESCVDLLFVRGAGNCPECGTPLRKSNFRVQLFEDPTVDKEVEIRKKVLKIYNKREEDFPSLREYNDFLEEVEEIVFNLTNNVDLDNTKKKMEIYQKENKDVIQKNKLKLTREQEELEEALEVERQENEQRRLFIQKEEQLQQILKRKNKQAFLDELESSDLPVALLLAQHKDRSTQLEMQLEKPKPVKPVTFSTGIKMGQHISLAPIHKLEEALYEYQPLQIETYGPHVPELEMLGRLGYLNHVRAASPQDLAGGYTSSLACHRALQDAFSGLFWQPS
Sequence of CDK4/CycD (P11802 whole entry): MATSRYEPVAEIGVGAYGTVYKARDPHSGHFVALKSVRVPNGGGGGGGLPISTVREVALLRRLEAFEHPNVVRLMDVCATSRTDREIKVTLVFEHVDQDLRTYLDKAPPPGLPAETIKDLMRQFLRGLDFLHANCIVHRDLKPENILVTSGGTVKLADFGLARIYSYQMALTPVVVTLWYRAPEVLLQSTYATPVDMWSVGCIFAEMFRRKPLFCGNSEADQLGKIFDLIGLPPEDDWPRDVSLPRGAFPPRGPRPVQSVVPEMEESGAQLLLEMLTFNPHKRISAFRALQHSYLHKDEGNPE
Sequence of CDK4/CycD (P24385 whole entry partner): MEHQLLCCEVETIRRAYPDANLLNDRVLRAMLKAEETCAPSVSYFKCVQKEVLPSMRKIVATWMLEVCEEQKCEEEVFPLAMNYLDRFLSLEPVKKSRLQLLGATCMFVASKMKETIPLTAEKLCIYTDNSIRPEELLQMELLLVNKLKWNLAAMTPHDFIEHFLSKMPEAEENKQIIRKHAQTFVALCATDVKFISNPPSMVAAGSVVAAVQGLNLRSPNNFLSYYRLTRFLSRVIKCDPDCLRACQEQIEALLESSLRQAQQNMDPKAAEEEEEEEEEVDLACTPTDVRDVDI

A word on the pIC50: it is −log10 of the IC50, conventionally taken in molar units. `CN1CCN(c2ccc(Nc3nccc(N4C(=O)NCC45CCCCC5)n3)nc2)CC1` [compound 6, 1-(2-{[5-(4-methylpiperazin-1-yl)pyridin-2-yl]amino}pyrimidin-4-yl)-1,3-diazaspiro[4.5]decan-2-one]: the pIC50 against CDK4/CycD is 6.00; at CDK6/CycD3 it was 5.30; on CDK2/CycE it was under 4.00; at CDK2/CycA, under 4.00; against CDK5/p35 it was under 4.00; on CDK5/p25 it was under 4.00. Further, the pIC50 is 4.02 at CDK7/CycH/MAT1 and 5.02 against CDK9/CycT.
Turning to `CN1CCN(c2ccc(Nc3nccc(N4C(=O)N(C)CC45CCCCC5)n3)nc2)CC1` [compound 8, 3-Methyl-1-(2-{[5-(4-methylpiperazin-1-yl)pyridin-2-yl]amino}pyrimidin-4-yl)-1,3-diazaspiro[4.5]decan-2-one], the pIC50 is 5.49 against CDK4/CycD; 4.79 against CDK6/CycD3; under 4.00 against CDK2/CycE; under 4.00 on CDK2/CycA; under 4.00 on CDK5/p35; under 4.00 against CDK5/p25. For the same molecule, the pIC50 at CDK7/CycH/MAT1 and against CDK9/CycT was under 4.00 throughout.
`CN1CCN(c2ccc(Nc3nccc(N4C(=O)N(Cc5ccccc5)CC45CCCCC5)n3)nc2)CC1` [compound 10, 3-benzyl-1-(2-{[5-(4-methylpiperazin-1-yl)pyridin-2-yl]amino}pyrimidin-4-yl)-1,3-diazaspiro[4.5]decan-2-one]: the pIC50 is 5.57 against CDK4/CycD; 4.45 on CDK6/CycD3; under 4.00 on CDK2/CycE; under 4.00 against CDK2/CycA; under 4.00 against CDK5/p35; under 4.00 against CDK5/p25. Further, the pIC50 against CDK7/CycH/MAT1 and on CDK9/CycT was under 4.00 in each case.
In the case of `CN1CCN(c2ccc(Nc3nccc(N4CCNC4=O)n3)nc2)CC1` [compound 16, 1-(2-{[5-(4-methylpiperazin-1-yl)pyridin-2-yl]amino}pyrimidin-4-yl)imidazolidin-2-one], the pIC50 against CDK4/CycD was 5.09; at CDK6/CycD3, 5.47; on CDK2/CycE it was under 4.00; against CDK2/CycA, under 4.00; on CDK5/p35, 4.14; against CDK5/p25 it was 4.02. The pIC50 on CDK7/CycH/MAT1 was 4.53; against CDK9/CycT, 5.03.
`CN1CCN(c2ccc(Nc3nccc(N4CC(=O)NCC45CCCCC5)n3)nc2)CC1` [compound 20, 1-(2-{[5-(4-Methylpiperazin-1-yl)pyridin-2-yl]amino}pyrimidin-4-yl)-1,4-diazaspiro[5.5]undecan-3-one]: the pIC50 was 6.36 at CDK4/CycD; 6.00 on CDK6/CycD3; under 4.00 at CDK2/CycE; under 4.00 on CDK2/CycA; 4.42 on CDK5/p35; 4.41 at CDK5/p25. Further, the pIC50 against CDK7/CycH/MAT1 is under 4.00; against CDK9/CycT, 6.12.
For `CC(C)C1CC(=O)NN1c1ccnc(Nc2ccc(N3CCN(C)CC3)cn2)n1` (stereo not shown) [compound 28, 5-Isopropyl-1-(2-{[5-(4-methylpiperazin-1-yl)pyridin-2-yl]amino}pyrimidin-4-yl)pyrazolidin-3-one], the pIC50 on CDK4/CycD and on CDK6/CycD3 was under 4.00 each time.
Take `CN1CCN(c2ccc(Nc3nccc(N4CCNC(=O)C4)n3)nc2)CC1` [compound 32, 4-(2-{[5-(4-Methylpiperazin-1-yl)pyridin-2-yl]amino}pyrimidin-4-yl)piperazin-2-one]: the figures for the pIC50 on CDK4/CycD, against CDK6/CycD3 and on CDK9/CycT were 4.84, 4.29 and 4.64, respectively.
Turning to `C[C@H]1CNC(=O)CN1c1ccnc(Nc2ccc(N3CCN(C)CC3)cn2)n1` [compound 40, (5S)-5-Methyl-4-(2-{[5-(4-methylpiperazin-1-yl)pyridin-2-yl]amino}pyrimidin-4-yl)piperazin-2-one], the pIC50 is 5.77 at CDK4/CycD, 5.24 against CDK6/CycD3, 4.15 on CDK2/CycE and 4.06 against CDK2/CycA.
For the molecule `CC(C)[C@H]1CNC(=O)N1c1ccnc(Nc2ccc(N3CCN(C)CC3)cn2)n1` [compound 46, (5S)-5-Isopropyl-1-(2-{[5-(4-methylpiperazin-1-yl)pyridin-2-yl]amino}pyrimidin-4-yl)imidazolidin-2-one], the pIC50 is 6.12 against CDK4/CycD, 5.48 against CDK6/CycD3, 4.64 on CDK2/CycE and 5.01 against CDK2/CycA.
Consider `C[C@H]1CNC(=O)N1c1ccnc(Nc2ccc(N3CCN(C)CC3)cn2)n1` [compound 52, (5S)-5-methyl-1-(2-{[5-(4-methylpiperazin-1-yl)pyridin-2-yl]amino}pyrimidin-4-yl)imidazolidin-2-one], for which the pIC50 on CDK4/CycD is 5.82; against CDK6/CycD3, 5.40; against CDK2/CycE it was 4.24; against CDK2/CycA it was 4.45.
As for `CN1CCN(c2ccc(Nc3nccc(N4C(c5ccccc5)=NCC45CCCCC5)n3)nc2)CC1` [compound 53, N-(5-(4-methylpiperazin-1-yl)pyridin-2-yl)-4-(2-phenyl-1,3-diazaspiro[4.5]dec-2-en-1-yl)pyrimidin-2-amine], the pIC50 is under 4.00 against CDK4/CycD; 4.15 at CDK6/CycD3; under 4.00 against CDK2/CycE; under 4.00 on CDK2/CycA; under 4.00 at CDK5/p35; under 4.00 at CDK5/p25. In addition, the pIC50 against CDK7/CycH/MAT1 and against CDK9/CycT was under 4.00 throughout.
`CN1CCN(c2ccc(Nc3nccc(N4C(c5ccoc5)=NCC45CCCCC5)n3)nc2)CC1` [compound 54, 4-(2-(furan-3-yl)-1,3-diazaspiro[4.5]dec-2-en-1-yl)-N-(5-(4-methylpiperazin-1-yl)pyridin-2-yl)pyrimidin-2-amine]: the pIC50 against CDK4/CycD, at CDK6/CycD3, on CDK2/CycE, at CDK2/CycA, against CDK5/p35 and at CDK5/p25 was under 4.00 throughout. Further, the pIC50 on CDK7/CycH/MAT1 and against CDK9/CycT was under 4.00 in each case.
Consider `CN1CCN(c2ccc(Nc3nccc(N4C(c5ccsc5)=NCC45CCCCC5)n3)nc2)CC1` [compound 55, N-(5-(4-methylpiperazin-1-yl)pyridin-2-yl)-4-(2-(thiophen-3-yl)-1,3-diazaspiro[4.5]dec-2-en-1-yl)pyrimidin-2-amine], for which the pIC50 against CDK4/CycD, against CDK6/CycD3, at CDK2/CycE, against CDK2/CycA, against CDK5/p35 and against CDK5/p25 was under 4.00 each time. The pIC50 on CDK7/CycH/MAT1 and at CDK9/CycT was under 4.00 in each case.
On to `CC[C@H]1CC(=O)NN1c1ccnc(Nc2ccc(N3CCN(C)CC3)cn2)n1` [compound 56, (S)-5-ethyl-1-(2-((5-(4-methylpiperazin-1-yl)pyridin-2-yl)amino)pyrimidin-4-yl)pyrazolidin-3-one], for which the pIC50 against CDK4/CycD was 5.40; on CDK6/CycD3 it was 4.48; against CDK2/CycE, under 4.00; against CDK2/CycA, under 4.00.
